Assay results: patent US20240307497A1, “ADIPONECTIN ALONE OR IN COMBINATION WITH EXTRACORPOREAL PHOTOPHERESIS (ECP) FOR IMMUNE RELATED ADVERSE EVENTS OF IMMUNE CHECKPOINT INHIBITORS” (Mallinckrodt Pharmaceuticals Ireland Limited, priority 2022, published 2024)

Assays:
[1] = tested on: s.c. B16.F10-OVA melanoma and MC38-OVA^dim colorectal tumors; test: OVA-transgenic subcutaneous tumor models; assay type: in vivo, mice; conditions: OT-I and CD8^+OVA-Dextramer^+ T-cells, d16
Protocol: C57BL/6 recipients were transplanted subcutaneously with 1×106 MC38-OVAdim or 0.5×10^6 MC38 cells into the shorn right flank. Recipients were treated i.p. with 0.2 mg ICI on days 1, 4, 8, 11, 15. ECP-treated splenocytes were transplanted (107; i.v.) on days 6, 11 and 15, daily steroids were given (i.p.) from days 6-15. On day 16, serum samples were harvested by retroorbital bleeding, the mice were euthanized and tumors were resected for further studies.
CD45.1 recipients were transplanted subcutaneously with 1×106 B16.F10-OVA cells into the shorn right flank and treated i.p. with 0.2 mg ICI on day 1, 4, 8, 11, 15. ECP-treated splenocytes were transplanted (107; i.v.) on days 6, 11 and 15, daily steroids were given (i.p.) from days 6-15. OT-I splenocytes (CD45.2) were activated on day 2 at a density of 2×10^6 cells/mL in the presence of 100 U/mL rmIL-2 (Peprotech) and 0.1 μg/mL OVA257-264 peptide (Sigma) in RPMI supplemented with 10% FCS, 1% P/S, 55 μM beta-Mercaptoethanol (Gibco) and 4 mM glutamine (Gibco). Splenocytes were washed on day 4 and replated with 100 U/mL rmIL-2 at 2×10^6 cells/mL. […]
For quantification of adiponectin concentrations in murine serum specimen, blood was harvested by retroorbital bleeding and serum was isolated by centrifugation. Adiponectin concentrations were measured using Adiponectin Mouse ELISA Kit (ThermoFisher) at 20,000-fold dilution.

B16.F10 melanoma [2] = test: B16.F10 intravenous/metastatic tumor model; assay type: in vivo, C57BL/6 mice; conditions: added to anti-PD1, vs anti-PD1-therapy alone
Protocol: C57BL/6 mice were intravenously injected with 10 000 B16.F10luc/GFP melanoma cells in the tail vein and treated with 0.2 mg ICI or the respective isotype control on day 1, 4, 8, 16 and 22. ECP-treated splenocytes were transplanted (107; i.v.) on days 13, 18, and 22, and daily steroids were given (i.p.) from days 13-22. Survival of the mice was monitored until day 60.

[3] = tested on: B16.F10 melanoma with DSS/anti-PD1-mediated colitis; test: Combined colitis and B16.F10 tumor model; assay type: in vivo, C57BL/6 mice
Protocol: C57BL/6 mice were intravenously injected with 10 000 B16.F10luc/GFP melanoma cells in the tail vein and received 3% Dextran Sodium Sulfate (DSS colitis grade, 36-50 kDa; MP Biomedicals) in drinking water from day 9-12, followed by normal drinking water. Mice were treated with 0.2 mg ICI or the respective isotype control on days 1, 4, 8, 16 and 22. ECP-treated splenocytes were transplanted (107; i.v.) on days 13, 18 and 22, daily steroid was given (i.p.) from days 13-22. Mice were imaged with BLI on day 23, organs and serum were harvested on day 24.
Luciferin (D-luciferin, potassium salt (S)-4,5-Dihydro-2-(6-hydroxy-2-benzothiazolyl)-4-thiazolecarboxylic acid potassium salt; Biosynth) was dissolved in H2O and injected i.p. at a concentration of 150 μg/g body weight. After 10 minutes, the mice were imaged using an IVIS Lumina III in vivo imaging system (PerkinElmer) with an exposure time of 2 minutes. The luciferase signal was quantified in photons per second per mouse. Acquisition, analysis, and visualization of BLI were performed using Living Image Software (PerkinElmer).

B16.F10 melanoma [4] = test: Recall immunity experiment; assay type: in vivo, mice; conditions: T-cells of treated donors into secondary B16.F10 recipients
Excerpt: For evaluation of recall immunity, T-cell donor mice were challenged with 104 B16.F10 melanoma cells (i.v.) and treated with anti-PD1 (days 1, 3, 6, 9, 12), ECP (days 3, 7, 12) or steroids (days 3-12). Secondary recipients were sub-lethally irradiated with 6 Gy TBI and injected i.v. with 104 B16.F10 or 2×10^6 4434 melanoma cells. Splenic T-cells were enriched from T-cell donors on day 13 using the Pan T-cell Isolation Kit II (mouse, Miltenyi) and 1×105 T-cells were transplanted i.v. into secondary recipients on day 3 following tumor injection. Untreated melanoma mice served as control.

[5] = tested on: BRAF^V600E-mutant 4434 melanoma; test: 4434 intravenous tumor model; assay type: in vivo, C57BL/6 mice; conditions: added to anti-PD1, second melanoma model

Structure (SMILES): C[C@]12C=CC(=O)C=C1CC[C@@H]1[C@@H]2[C@@H](O)C[C@@]2(C)[C@H]1CC[C@]2(O)C(=O)CO [Steroids, Prednisolone]
- tumor-specific T-cells in the tumor microenvironment [1]: reduction of adoptively-transferred OT-I T-cells and endogenous CD8^+OVA-Dextramer^+ T-cells
- survival (B16.F10 melanoma [2]): reduced survival
- colitis in melanoma-bearing mice ([3]; d23): similarly reduced
- tumor burden / control of tumor growth ([3]; luminescence imaging and melanoma transcripts in lungs): higher tumor burden
- recall-immunity of transferred T-cells (B16.F10 melanoma [4]): this was not the case
- survival [5]: findings were reproduced
